Test results reported in patent publication US6677429B1, “Echinocandin derivatives, preparation method and application as anti-fungal agents” (Aventis Pharma S.A., priority 1997, dated 2004).

Molecular target: T1, Glucane Synthesis of Candida albicans (Candida albicans, UniProt O13428)
T1 construct: 22.5 µg of membrane proteins are incubated in a mixture of 2 Mm of 14C-UDP glucose; endogenous in cells
Assay: Inhibition of the Glucane Synthesis of Candida albicans
Assay type: biochemical
Conditions: purified Candida albicans membranes, 14C-UDP glucose, 25° C. for 1 hour, radioactivity on filter counted
Procedure: A—Inhibition of the Glucane Synthesis of Candida albicans.
The membranes of Candida albicans are purified according to the process described by Tang and al Antimicrob. Agents Chemother 35, 99-103, 1991. 22.5 µg of membrane proteins are incubated in a mixture of 2 Mm of 14C-UDP glucose (specific activity=0.34mCi./mmol, 50 μg of α-amylase, 1Mm of dithiotreitol (DTT), 1Mm EDTA, 100 Mm NaF, 7 μM of GTP-γ-S, 1M of sucrose and 5 oMm OF Ttris-HCL (pH 7.8) in a volume of 100 μl. The medium is incubated at 25° C. for 1 hour and the reaction terminated by addition of TCA to a final concentration of 5%. The reaction medium is transferred onto a pre-humidified glass fibre filter. The filter is washed, dried and its radioactivity is counted.
Mulundocandin is used as positive control.
The control of the medium is carried out with the same quantity of DMSO 1%.

T1 sequence (O13428 1-1897): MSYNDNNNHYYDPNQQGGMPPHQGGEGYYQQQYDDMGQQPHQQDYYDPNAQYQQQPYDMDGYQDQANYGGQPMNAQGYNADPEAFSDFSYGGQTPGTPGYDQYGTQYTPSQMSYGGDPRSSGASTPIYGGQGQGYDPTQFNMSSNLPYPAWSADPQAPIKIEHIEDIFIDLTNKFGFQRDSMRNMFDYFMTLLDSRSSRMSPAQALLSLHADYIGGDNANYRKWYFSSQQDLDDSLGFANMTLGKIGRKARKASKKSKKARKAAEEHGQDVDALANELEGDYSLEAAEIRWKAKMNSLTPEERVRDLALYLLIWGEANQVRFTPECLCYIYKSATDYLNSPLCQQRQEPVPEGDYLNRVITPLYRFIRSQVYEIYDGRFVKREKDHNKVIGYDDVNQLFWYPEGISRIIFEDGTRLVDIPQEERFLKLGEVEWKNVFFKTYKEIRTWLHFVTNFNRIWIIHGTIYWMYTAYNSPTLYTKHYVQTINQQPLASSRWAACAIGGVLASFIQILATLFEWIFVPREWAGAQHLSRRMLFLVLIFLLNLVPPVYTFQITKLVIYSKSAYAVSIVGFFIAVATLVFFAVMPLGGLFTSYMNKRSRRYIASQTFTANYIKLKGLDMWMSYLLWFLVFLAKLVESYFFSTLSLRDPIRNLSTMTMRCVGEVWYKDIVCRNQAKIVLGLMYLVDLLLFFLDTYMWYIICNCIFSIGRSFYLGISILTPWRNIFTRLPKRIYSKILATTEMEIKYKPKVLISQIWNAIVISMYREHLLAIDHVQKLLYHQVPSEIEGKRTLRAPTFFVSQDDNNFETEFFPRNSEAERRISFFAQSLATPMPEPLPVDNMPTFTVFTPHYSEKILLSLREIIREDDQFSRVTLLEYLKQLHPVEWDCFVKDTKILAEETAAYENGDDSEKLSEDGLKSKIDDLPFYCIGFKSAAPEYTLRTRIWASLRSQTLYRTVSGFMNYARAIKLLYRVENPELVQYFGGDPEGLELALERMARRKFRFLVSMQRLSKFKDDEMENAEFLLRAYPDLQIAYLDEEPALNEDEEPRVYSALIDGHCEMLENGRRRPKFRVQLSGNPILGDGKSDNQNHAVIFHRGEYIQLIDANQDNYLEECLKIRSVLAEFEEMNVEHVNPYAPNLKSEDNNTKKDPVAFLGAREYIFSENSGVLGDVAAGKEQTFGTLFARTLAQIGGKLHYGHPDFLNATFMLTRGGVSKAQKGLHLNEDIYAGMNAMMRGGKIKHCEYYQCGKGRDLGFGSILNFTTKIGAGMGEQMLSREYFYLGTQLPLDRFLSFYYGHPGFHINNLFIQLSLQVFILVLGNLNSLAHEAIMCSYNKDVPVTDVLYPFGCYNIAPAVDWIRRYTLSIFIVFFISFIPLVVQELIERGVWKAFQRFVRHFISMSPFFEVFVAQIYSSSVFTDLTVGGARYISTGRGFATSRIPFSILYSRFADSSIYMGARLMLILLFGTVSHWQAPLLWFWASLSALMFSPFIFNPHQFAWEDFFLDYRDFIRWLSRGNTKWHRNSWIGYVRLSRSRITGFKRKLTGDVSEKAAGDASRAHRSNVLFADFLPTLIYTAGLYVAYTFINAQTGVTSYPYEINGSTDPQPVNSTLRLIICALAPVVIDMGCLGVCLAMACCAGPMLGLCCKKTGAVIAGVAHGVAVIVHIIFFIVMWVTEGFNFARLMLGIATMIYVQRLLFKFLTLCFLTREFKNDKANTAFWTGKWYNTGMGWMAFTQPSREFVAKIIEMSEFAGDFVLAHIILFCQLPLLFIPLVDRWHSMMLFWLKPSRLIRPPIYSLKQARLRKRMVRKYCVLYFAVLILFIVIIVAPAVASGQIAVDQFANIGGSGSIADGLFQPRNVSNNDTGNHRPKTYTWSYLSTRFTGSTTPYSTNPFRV
T1 sequence (O42825 whole entry partner): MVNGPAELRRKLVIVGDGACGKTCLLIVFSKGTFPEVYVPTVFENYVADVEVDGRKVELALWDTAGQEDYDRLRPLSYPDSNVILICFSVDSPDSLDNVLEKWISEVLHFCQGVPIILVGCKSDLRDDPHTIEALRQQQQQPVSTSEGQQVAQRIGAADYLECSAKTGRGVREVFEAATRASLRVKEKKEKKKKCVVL

Compound | Inhibition of the Glucane Synthesis of Candida albicans (activity in this test)
(±) Trifluoroacetate of 1-[4-[(Aminoiminomethyl) hydrazono]-N2-(12-methyl-1-oxotetradecyl)-L-ornithine]4-[4-(4-hydroxyphenyl)-L-threonine]-5-L Serine Echinocandin B [Example 11] | good activity
Trifluoroacetate of 1-[4-[(2-Aminoethyl)amino]-N2-(12-methyl-1-oxotetradecyl)-L-ornithine]4-[4-(4-hydroxyphenyl)-L-threonine]-5-L Serine Echinocandin B (Isomer A and Isomer B) [Example 9] | good activity
CCCCCCCCOc1ccc(-c2ccc(C(=O)NC3CC(NCCN)CNC(=O)C4C(O)C(C)CN4C(=O)C(CO)NC(=O)C(C(O)Cc4ccc(O)cc4)NC(=O)C4CC(O)CN4C(=O)C(C(C)O)NC3=O)cc2)cc1.O=C(O)C(F)(F)F (single isomer, unassigned; isomer a) [Example 14, Trifluoroacetate of 1-[4-[(2-Aminoethyl)amino]N2-[[4′-(octyloxy)[1.1′-biphenyl]4-yl]carbonyl]-L-ornithine]4-[4-(4-hydroxyphenyl)-L-threonine]-5-L Serine Echinocandin B (Isomer A)] | good activity
